Data as given in patent US20240174690A1, “ANNULATED 2-AMINO-3-CYANO THIOPHENES AND DERIVATIVES FOR THE TREATMENT OF CANCER” (BOEHRINGER INGELHEIM INTERNATIONAL GMBH, priority 2021, published 2024).
pIC50: −log10 of the molar value. Converted amounts (≈) assume the structure as drawn. Where two headings read alike, the source gives them in different places.

How the values were obtained:
[1] = tested on: SAS cells; assay: SAS CTG proliferation assay (120 h) (HNSCC, wt amplified); type: cell-based
Procedure, shortened: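 Viability measured by CellTiter-Glo luminescence, normalized to DMSO wells, after 120 h compound treatment of SAS cells. Cells grown in DMEM:F12 plus 10% FCS at 300 cells per well, dosed the day after seeding. Four-parameter fit gives IC50.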

[2] = Metabolic (microsomal) stability assay, human liver microsomes (HLM); type: in vitro ADME; conditions: predicted clearance as percent of liver blood flow, 1 μM
Procedure, shortened: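 LC-MS/MS tracked parent disappearance at 0, 5, 15, 30 and 60 min in NADPH-initiated incubations with 1 mg/mL human microsomal protein and 1 μM compound at 37°C, pH 7.5. First-order fits gave intrinsic clearance, which was scaled up and reported as % QH. NADPH-free controls were also run.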

[3] = Plasma protein binding assay (PPB), equilibrium dialysis, 10% FCS in PBS; type: in vitro ADME; conditions: bovine, read-out: PPB 10% FCS (% fu)
Procedure, shortened: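 Test compound (1-10 μmol/L) in 10% FCS in PBS was dialysed for 3-5 h at 37° C versus PBS ± dextran across a semipermeable membrane. LC-MS of both compartments after protein precipitation gave Cserum and Cbuffer, from which the unbound fraction fu was derived.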

[4] = Solubility measurement (DMSO solution method), McIlvaine buffer pH 4.5 or 6.8; type: physicochemical; conditions: aqueous buffer, kinetic from dmso stock, DMSO stock diluted to 250 μM, 24 h shaking at ambient temperature
Procedure, shortened: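 Filtrate concentration by LC-UV, calibrated to a known-concentration reference dissolved completely in acetonitrile/water (1:1). Samples came from 250 µM final dilutions of DMSO stock in pH 4.5 or 6.8 McIlvaine buffer, shaken 24 h at ambient temperature, then filtered.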

[5] = Caco-2 assay (permeability PappAB, PappBA, efflux ratio); type: in vitro ADME; conditions: human, Caco-2, 10 μM test compound, pH 7.4; for efflux ratio at 90 min, 10 μM: efflux ratio PappBA/PappAB, read-out: Caco ER; for Papp A→B at 90 min, 10 μM: apical to basolateral
Procedure, shortened: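 Bidirectional permeability (apical-to-basolateral and reverse) through polarized Caco-2 monolayers, BSA 0.25% on each side, 37 °C. Donor and receiver sampled at 0-90 min after 25-30 min preincubation, analysed by HPLC/MS/MS. Apparent permeabilities derived from transfer rate normalised to area and t=0 donor concentration; ER taken as PappBA over PappAB.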

[6] = McIlvaine buffer pH 4.5, read-out: solubility pH 4.5
[7] = McIlvaine buffer pH 6.8, read-out: solubility pH 6.8

| HLM QH [2] | fraction unbound [3] | solubility at 24 h [4, 6] | solubility at 24 h [4, 7] | efflux ratio at 90 min, 10 μM [5] | Papp A→B at 90 min, 10 μM [5] | Structure (SMILES) | pIC50 [1] |
| --- | --- | --- | --- | --- | --- | --- | --- |
| <24% | 0.13 | < 1 µg/mL | < 1 µg/mL | 1.3 |  | C[C@H](Oc1cc(-n2cc(-c3cncs3)nn2)nc(-c2noc3c2CCC[C@@]32CCCc3sc(N)c(C#N)c32)n1)[C@@H]1CCCN1C [II-125] | 6.74 |
| 75% | 0.11 | 105 µg/mL (≈ 178 µM) | < 1 µg/mL | 0.7 | 15 ×10⁻⁶ cm/s | C[C@H](Oc1cc(-c2ccn(C)n2)nc(-c2noc3c2CCC[C@@]32CCCc3sc(N)c(C#N)c32)n1)[C@@H]1C[C@H](F)CN1C [II-144] | 6.52 |
| 59% | 0.24 | > 161 µg/mL | < 1 µg/mL | 2 |  | C[C@H](Oc1cc(N2CCN(C)C3(CCOC3)C2)nc(-c2noc3c2CCC[C@@]32CCCc3sc(N)c(C#N)c32)n1)[C@@H]1C[C@@H](F)CN1C (some centres unmarked) [II-151] | 6.79 |
| 30% | 0.08 | 116 µg/mL (≈ 173 µM) | 31 µg/mL (≈ 46.3 µM) | 2.6 | 11 ×10⁻⁶ cm/s | C[C@H](Oc1cc(-n2ccc(C(=O)N(C)C3COC3)n2)nc(-c2noc3c2CCC[C@@]32CCCc3sc(N)c(C#N)c32)n1)[C@@H]1CCCN1C [II-194] | 7.43 |
| 58% | 0.14 | > 135 µg/mL | 103 µg/mL (≈ 156 µM) | 30 | 1.2 ×10⁻⁶ cm/s | CO[C@@H]1C[C@@H]([C@H](C)Oc2cc(N3CCN(C)C4(COC4)C3)nc(-c3noc4c3CCC[C@@]43CCCc4sc(N)c(C#N)c43)n2)N(C)C1 [II-153] | 6.70 |
| <24% | 0.05 | 17 µg/mL (≈ 24 µM) | 2 µg/mL (≈ 2.83 µM) | 16.8 |  | C[C@H](Oc1cc(-n2cc3ccn(C4CCOCC4)c(=O)c3n2)nc(-c2noc3c2CCC[C@@]32CCCc3sc(N)c(C#N)c32)n1)[C@@H]1CCCN1C [II-206] | 7.60 |
| <24% | 0.08 | > 127 µg/mL | 39 µg/mL (≈ 62.2 µM) | 4.1 | 5.9 ×10⁻⁶ cm/s | C[C@H](Oc1cc(-c2ccn([C@H]3CCOC3)n2)nc(-c2noc3c2CCC[C@@]32CCCc3sc(N)c(C#N)c32)n1)[C@@H]1CCCN1C [II-127] | 7.74 |
| 60% | 0.1 | > 158 µg/mL | > 147 µg/mL | 2.3 |  | CO[C@H]1CCN(C)[C@@H]1[C@H](C)Oc1cc(N2CCNC3(CC3)C2)nc(-c2noc3c2CCC[C@@]32CCCc3sc(N)c(C#N)c32)n1 [II-184] | 6.05 |
| 32% | 0.23 | > 150 µg/mL | > 148 µg/mL | 8.2 | 3 ×10⁻⁶ cm/s | C[C@H](Oc1cc(N2CCN(C)C3(CC3)C2)nc(-c2noc3c2CCC[C@@]32CCCc3sc(N)c(C#N)c32)n1)[C@@H]1CCCN1C [II-171] | 5.96 |
| 41% | 0.07 | > 128 µg/mL | 6 µg/mL (≈ 9.53 µM) | 1.8 | 18 ×10⁻⁶ cm/s | CO[C@H]1CCN(C)[C@@H]1[C@H](C)Oc1cc(-n2ccc(C(N)=O)n2)nc(-c2noc3c2CCC[C@@]32CCCc3sc(N)c(C#N)c32)n1 [II-201] | 7.70 |
| <24% | 0.02 | 23 µg/mL (≈ 32.5 µM) | 2 µg/mL (≈ 2.83 µM) | 2.6 |  | C[C@H](Oc1cc(-n2ccc(-c3cn(CC4(C)COC4)nn3)n2)nc(-c2noc3c2CCC[C@@]32CCCc3sc(N)c(C#N)c32)n1)[C@@H]1CCCN1C [II-213] | 7.89 |
| <24% | 0.26 | > 153 µg/mL | > 142 µg/mL | 82.1 | 0.3 ×10⁻⁶ cm/s | C[C@H](Oc1cc(N2C[C@@H]3[C@@H](N)[C@@H]3C2)nc(-c2noc3c2CCC[C@@]32CCCc3sc(N)c(C#N)c32)n1)[C@@H]1CCCN1C [II-167] | 5.86 |
| 61% | 0.16 | > 142 µg/mL | 49 µg/mL (≈ 79.2 µM) | 2.5 |  | C[C@H](Oc1cc(N2CCNC3(CC3)C2)nc(-c2noc3c2CCC[C@@]32CCCc3sc(N)c(C#N)c32)n1)[C@@H]1C[C@@H](F)CN1C [II-165] | 6.36 |
| 58% | 0.08 | > 132 µg/mL | 61 µg/mL (≈ 94.6 µM) | 16.8 | 3.1 ×10⁻⁶ cm/s | CO[C@@H]1C[C@@H]([C@H](C)Oc2cc(N3CCN(C)C4(CC4)C3)nc(-c3noc4c3CCC[C@@]43CCCc4sc(N)c(C#N)c43)n2)N(C)C1 [II-152] | 5.37 |
| <24% | 0.69 | > 140 µg/mL | > 137 µg/mL | 57.6 | 0.3 ×10⁻⁶ cm/s | C[C@H](Oc1cc(N2CCN[C@@H](C)C2)nc(-c2noc3c2CCC[C@@]32CCCc3sc(N)c(C#N)c32)n1)[C@@H]1CCCN1C [II-162] | 5.67 |
| 44% | 0.24 | 131 µg/mL (≈ 199 µM) | 71 µg/mL (≈ 108 µM) | 4.5 | 6.2 ×10⁻⁶ cm/s | COCCNC(=O)c1ccn(-c2cc(O[C@@H](C)[C@@H]3CCCN3C)nc(-c3noc4c3CCC[C@@]43CCCc4sc(N)c(C#N)c43)n2)n1 [II-195] | 7.43 |
| <24% | 0.03 | < 1 µg/mL | < 1 µg/mL | 1.4 |  | C[C@H](Oc1cc(-n2ccc(-c3cnccn3)n2)nc(-c2noc3c2CCC[C@@]32CCCc3sc(N)c(C#N)c32)n1)[C@@H]1CCCN1C [II-130] | 6.75 |
| 73% | 0.04 | > 150 µg/mL | < 1 µg/mL | 0.4 |  | C[C@@H]1CN(c2nc(-c3noc4c3CCC[C@@]43CCCc4sc(N)c(C#N)c43)nc(O[C@@H](C)[C@@H]3C[C@@H](F)CN3C)c2F)CC2(CC2)N1 [II-158] | 6.23 |
| 65% | 0.04 | > 142 µg/mL | < 1 µg/mL | 1.8 |  | C[C@H](Oc1nc(-c2noc3c2CCC[C@@]32CCCc3sc(N)c(C#N)c32)nc(N2CCNC3(CC3)C2)c1Cl)[C@@H]1C[C@@H](F)CN1C [II-156] | 6.36 |
| 36% | 0.31 | 117 µg/mL (≈ 186 µM) | 100 µg/mL (≈ 159 µM) | 4.9 | 6.8 ×10⁻⁶ cm/s | C[C@H](Oc1cc(-n2cc(C(=O)N(C)C)nn2)nc(-c2noc3c2CCC[C@@]32CCCc3sc(N)c(C#N)c32)n1)[C@@H]1CCCN1C [II-132] | 6.50 |
| 57% | 0.18 | > 123 µg/mL | 91 µg/mL (≈ 158 µM) | 7.3 | 4.5 ×10⁻⁶ cm/s | C[C@H](Oc1cc(N2CCOC2=O)nc(-c2noc3c2CCC[C@@]32CCCc3sc(N)c(C#N)c32)n1)[C@@H]1CCCN1C [II-143] | 7.32 |
| <24% | 0.21 | > 148 µg/mL | > 150 µg/mL | 49.8 | 0.4 ×10⁻⁶ cm/s | C[C@H](Oc1cc(N2CCNC[C@@]23CCOC3)nc(-c2onc3c2CCC[C@@]32CCCc3sc(N)c(C#N)c32)n1)[C@@H]1CCCN1C [I-13] | 6.53 |
| 32% | 0.03 | 73 µg/mL (≈ 104 µM) | 12 µg/mL (≈ 17 µM) | 2.5 |  | C[C@H](NC(=O)c1ccn(-c2cc(O[C@@H](C)[C@@H]3CCCN3C)nc(-c3noc4c3CCC[C@@]43CCCc4sc(N)c(C#N)c43)n2)n1)c1ccccn1 [II-191] | 8.00 |
| 34% | 0.31 | 116 µg/mL (≈ 188 µM) | 105 µg/mL (≈ 171 µM) | 8 | 4 ×10⁻⁶ cm/s | C[C@H](O)Cn1ncc(-c2cc(O[C@@H](C)[C@@H]3CCCN3C)nc(-c3noc4c3CCC[C@@]43CCCc4sc(N)c(C#N)c43)n2)n1 [II-134] | 7.46 |
